Assay [1] has as its system HIF1a protein in H9c2 rat cardiomyocytes. The experiment in a line: Cell-based HIF-alpha stabilization assay (inhibition of PHD in cells). The note with it: Rattus norvegicus, H9c2, 24 h, 24 hrs compound incubation, HIF1a protein by ELISA, read-out: Inhibition of PHD in cells (pEC50) (converted). An outline of the steps: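 HIF1a stabilization was measured by ELISA on lysates of H9c2 rat cardiomyocytes after 24 h exposure to 11 serial compound concentrations, expressed relative to the desferrioxamine maximum. Curve fits gave EC50. EC50pos denotes the concentration producing half the desferrioxamine maximal response.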
(An ELISA detects its analyte on a solid surface through an enzyme-linked reagent.)

For assay [2], the target named is PHD2 enzyme (residues 181-417) (Homo sapiens (Human), UniProt Q9GZT9). The experiment in a line: Inhibition of PHD enzyme (LC/MS peptide hydroxylation assay). It is filed as biochemical. The note with it: PHD2 (residues 181-417) 5 nM, 60 min pre-incubation; -log(IC50), IC50 molar. Summed up:
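Hydroxylated peptide quantified by LC/MS after 60 min turnover of 1 uM biotinylated peptide with 2 uM 2-oxoglutarate and 1 mM ascorbate, stopped by excess tight-binding inhibitor. Beforehand, 5 nM enzyme and compound were preincubated 60 min at RT, pH 7.3 HEPES/KCl/TCEP/FeCl2/BSA buffer. Values as pIC50 (−log molar IC50).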

Molecules are shown by their SMILES.

Chain of PHD2 enzyme (residues 181-417) (Q9GZT9 181-417): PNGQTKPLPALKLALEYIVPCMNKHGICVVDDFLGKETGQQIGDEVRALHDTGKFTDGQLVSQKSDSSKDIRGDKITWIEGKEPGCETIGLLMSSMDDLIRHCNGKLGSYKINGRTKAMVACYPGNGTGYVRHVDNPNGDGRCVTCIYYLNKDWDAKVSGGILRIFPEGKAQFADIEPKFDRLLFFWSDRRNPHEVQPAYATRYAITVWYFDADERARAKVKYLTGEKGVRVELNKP

Regarding `CC[C@@H](C)NC(=O)c1ccc(-n2ncc(-c3ccc(C#N)cc3C)c2O)nc1` [Example 58, (R)—N-(sec-butyl)-6-(4-(4-cyano-2-methylphenyl)-5-hydroxy-1H-pyrazol-1-yl)nicotinamide], in assay [1], the EC50 is 158 nM. In addition, the “PHD Inhibition (pIC50)” value in assay [2] is 7.16.

Turning to `Cc1cc(C#N)ccc1-c1cnn(-c2ccc(C(=O)NC3CCOCC3)cn2)c1O` [Example 59, 6-(4-(4-cyano-2-methylphenyl)-5-hydroxy-1H-pyrazol-1-yl)-N-(tetrahydro-2H-pyran-4-yl)nicotinamide], in assay [1], the EC50 is 70.8 nM. Also, the “PHD Inhibition (pIC50)” value in assay [2] was 7.33.

With `CCCNC(=O)c1ccc(-n2ncc(-c3ccc(C#N)cc3C)c2O)nc1` [Example 60, 6-(4-(4-cyano-2-methylphenyl)-5-hydroxy-1H-pyrazol-1-yl)-N-propylnicotinamide], the EC50 in assay [1] was 200 nM. Also, the “PHD Inhibition (pIC50)” value in assay [2] was 7.14.

Turning to `Cc1cc(C#N)ccc1-c1cnn(-c2ccc(C(=O)NC3(C)CC3)cn2)c1O` [Example 61, 6-(4-(4-cyano-2-methylphenyl)-5-hydroxy-1H-pyrazol-1-yl)-N-(1-methylcyclopropyl)nicotinamide], the EC50 in assay [1] is 79.4 nM. The “PHD Inhibition (pIC50)” value in assay [2] was found to be 7.19.

Regarding `COC[C@@H](NC(=O)c1ccc(-n2ncc(-c3ccc(C#N)cc3C)c2O)nc1)C(C)C` [Example 62, (S)-6-(4-(4-cyano-2-methylphenyl)-5-hydroxy-1H-pyrazol-1-yl)-N-(1-methoxy-3-methylbutan-2-yl)nicotinamide], the EC50 in assay [1] was 182 nM. Also, the “PHD Inhibition (pIC50)” value in assay [2] was 7.14.

In the case of `Cc1cc(C#N)ccc1-c1cnn(-c2ccc(C(=O)N[C@H](C)C3CCOCC3)cn2)c1O` [Example 63, (R)-6-(4-(4-cyano-2-methylphenyl)-5-hydroxy-1H-pyrazol-1-yl)-N-(1-(tetrahydro-2H-pyran-4-yl)ethyl)nicotinamide], the EC50 in assay [1] is 158 nM. For the same compound, the “PHD Inhibition (pIC50)” value in assay [2] was determined as 7.25.

Consider `Cc1cc(C#N)ccc1-c1cnn(-c2ccc(C(=O)NCCC3CCOCC3)cn2)c1O` [Example 64, 6-(4-(4-cyano-2-methylphenyl)-5-hydroxy-1H-pyrazol-1-yl)-N-(2-(tetrahydro-2H-pyran-4-yl)ethyl)nicotinamide], for which the EC50 in assay [1] is 158 nM. In assay [2], the “PHD Inhibition (pIC50)” value is recorded as 7.25.

Turning to `COCC(C)(C)NC(=O)c1ccc(-n2ncc(-c3ccc(C#N)cc3C)c2O)nc1` [Example 65, 6-(4-(4-cyano-2-methylphenyl)-5-hydroxy-1H-pyrazol-1-yl)-N-(1-methoxy-2-methylpropan-2-yl)nicotinamide], the EC50 in assay [1] was 182 nM. In addition, the “PHD Inhibition (pIC50)” value in assay [2] is recorded as 7.08.

For `Cc1cc(C#N)ccc1-c1cnn(-c2ccc(C(=O)NCCC3CCOC3)cn2)c1O` (stereo not shown) [Example 66, 6-(4-(4-cyano-2-methylphenyl)-5-hydroxy-1H-pyrazol-1-yl)-N-(2-(tetrahydrofuran-3-yl)ethyl)nicotinamide], the EC50 in assay [1] was 120 nM. The “PHD Inhibition (pIC50)” value in assay [2] came to 7.22.

In the case of `COCCC(C)(C)NC(=O)c1ccc(-n2ncc(-c3ccc(C#N)cc3C)c2O)nc1` [Example 67, 6-(4-(4-cyano-2-methylphenyl)-5-hydroxy-1H-pyrazol-1-yl)-N-(4-methoxy-2-methylbutan-2-yl)nicotinamide], the EC50 in assay [1] was 219 nM. Moreover, the “PHD Inhibition (pIC50)” value in assay [2] came to 7.11.

Take `CO[C@H]1CC[C@H](NC(=O)c2ccc(-n3ncc(-c4ccc(C#N)cc4C)c3O)nc2)CC1` [Example 68, 6-(4-(4-cyano-2-methylphenyl)-5-hydroxy-1H-pyrazol-1-yl)-N-((1r,4r)-4-methoxycyclohexyl)nicotinamide]: the EC50 in assay [1] was 50.1 nM. Moreover, in assay [2], the “PHD Inhibition (pIC50)” value turned out to be 7.44.

For `COCCC(C)NC(=O)c1ccc(-n2ncc(-c3ccc(C#N)cc3C)c2O)nc1` (stereo not shown) [Example 69, 6-(4-(4-cyano-2-methylphenyl)-5-hydroxy-1H-pyrazol-1-yl)-N-(4-methoxybutan-2-yl)nicotinamide], the EC50 in assay [1] was 89.1 nM. Further, the “PHD Inhibition (pIC50)” value in assay [2] is 7.22.

With `Cc1cc(C#N)ccc1-c1cnn(-c2ccc(C(=O)NCCCOCC3CC3)cn2)c1O` [Example 70, 6-(4-(4-cyano-2-methylphenyl)-5-hydroxy-1H-pyrazol-1-yl)-N-(3-(cyclopropylmethoxy)propyl)nicotinamide], the EC50 in assay [1] is 229 nM. Moreover, the “PHD Inhibition (pIC50)” value in assay [2] turned out to be 7.17.

For `Cc1cc(C#N)ccc1-c1cnn(-c2ccc(C(=O)NC(CO)C3CCOC3)cn2)c1O` (stereo not shown) [Example 71, 6-(4-(4-cyano-2-methylphenyl)-5-hydroxy-1H-pyrazol-1-yl)-N-(2-hydroxy-1-(tetrahydrofuran-3-yl)ethyl)nicotinamide], the EC50 in assay [1] was 269 nM. The “PHD Inhibition (pIC50)” value in assay [2] was found to be 7.24.

For the compound `N#Cc1ccc(-c2cnn(-c3ccc(C(=O)NC4CCNCC4)cn3)c2O)cc1` [Example 72], the EC50 in assay [1] is 2880 nM. Also, the “PHD Inhibition (pIC50)” value in assay [2] is recorded as 7.8.

Consider `CC[C@H](CC#N)NC(=O)c1ccc(-n2ncc(-c3ccc(C#N)cc3)c2O)nc1` [Example 74, (R)—N-(1-cyanobutan-2-yl)-6-(4-(4-cyanophenyl)-5-hydroxy-1H-pyrazol-1-yl)nicotinamide], for which the EC50 in assay [1] was 3160 nM. For the same compound, in assay [2], the “PHD Inhibition (pIC50)” value is listed as 7.05.

As for `N#Cc1ccc(-c2cnn(-c3ccc(C(=O)NC4CCCCC4)cn3)c2O)cc1` [Example 75, 6-(4-(4-cyanophenyl)-5-hydroxy-1H-pyrazol-1-yl)-N-cyclohexylnicotinamide], the EC50 in assay [1] was 1700 nM. Moreover, the “PHD Inhibition (pIC50)” value in assay [2] worked out at 7.28.

With `CN1CC(NC(=O)c2ccc(-n3ncc(-c4ccc(C#N)cc4)c3O)nc2)C1` [Example 76, 6-(4-(4-cyanophenyl)-5-hydroxy-1H-pyrazol-1-yl)-N-(1-methylazetidin-3-yl)nicotinamide], the EC50 in assay [1] was 3090 nM. Moreover, the “PHD Inhibition (pIC50)” value in assay [2] is given as 6.68.

For the compound `N#Cc1ccc(-c2cnn(-c3ccc(C(=O)NCC(F)(F)F)cn3)c2O)cc1` [Example 77, 6-(4-(4-cyanophenyl)-5-hydroxy-1H-pyrazol-1-yl)-N-(2,2,2-trifluoroethyl)nicotinamide], in assay [1], the EC50 is 1260 nM. Further, in assay [2], the “PHD Inhibition (pIC50)” value was found to be 7.03.

Consider `N#Cc1ccc(-c2cnn(-c3ccc(C(=O)NCCF)cn3)c2O)cc1` [Example 78, 6-(4-(4-cyanophenyl)-5-hydroxy-1H-pyrazol-1-yl)-N-(2-fluoroethyl)nicotinamide], for which, in assay [1], the EC50 is 1550 nM. Moreover, in assay [2], the “PHD Inhibition (pIC50)” value was determined as 7.07.

As to `CCC(C)NC(=O)c1ccc(-n2ncc(-c3ccc(C#N)cc3)c2O)nc1` (stereo not shown) [Example 80, N-(sec-butyl)-6-(4-(4-cyanophenyl)-5-hydroxy-1H-pyrazol-1-yl)nicotinamide], the EC50 in assay [1] is 1070 nM. In addition, the “PHD Inhibition (pIC50)” value in assay [2] was 7.23.

`N#Cc1ccc(-c2cnn(-c3ccc(C(=O)NC4CCOCC4)cn3)c2O)cc1` [Example 81, 6-(4-(4-cyanophenyl)-5-hydroxy-1H-pyrazol-1-yl)-N-(tetrahydro-2H-pyran-4-yl)nicotinamide]: the EC50 in assay [1] was 4790 nM. The “PHD Inhibition (pIC50)” value in assay [2] is given as 7.2.

In the case of `N#Cc1ccc(-c2cnn(-c3ccc(C(=O)NC4CCC(F)(F)CC4)cn3)c2O)cc1` [Example 84, 6-(4-(4-cyanophenyl)-5-hydroxy-1H-pyrazol-1-yl)-N-(4,4-difluorocyclohexyl)nicotinamide], in assay [1], the EC50 was 2240 nM. In assay [2], the “PHD Inhibition (pIC50)” value turned out to be 6.91.

Consider `N#Cc1ccc(-c2cnn(-c3ccc(C(=O)NC4CCN(CCO)CC4)cn3)c2O)cc1` [Example 85, 6-(4-(4-cyanophenyl)-5-hydroxy-1H-pyrazol-1-yl)-N-(1-(2-hydroxyethyl)piperidin-4-yl)nicotinamide], for which the EC50 in assay [1] is 2240 nM. For the same compound, the “PHD Inhibition (pIC50)” value in assay [2] is 6.94.

Consider `CC[C@H](C)NC(=O)c1ccc(-n2ncc(-c3ccc(C#N)cc3)c2O)nc1` [Example 87, (S)—N-(sec-butyl)-6-(4-(4-cyanophenyl)-5-hydroxy-1H-pyrazol-1-yl)nicotinamide], for which the EC50 in assay [1] is 603 nM. Further, the “PHD Inhibition (pIC50)” value in assay [2] was 7.66.

For `CC(C)OCCNC(=O)c1ccc(-n2ncc(-c3ccc(C#N)cc3)c2O)nc1` [Example 89, 6-(4-(4-cyanophenyl)-5-hydroxy-1H-pyrazol-1-yl)-N-(2-isopropoxyethyl)nicotinamide], the EC50 in assay [1] was 708 nM. In addition, in assay [2], the “PHD Inhibition (pIC50)” value is 7.24.

`N#Cc1ccc(-c2cnn(-c3ccc(C(=O)NCCCN4CCOCC4)cn3)c2O)cc1` [Example 91, 6-(4-(4-cyanophenyl)-5-hydroxy-1H-pyrazol-1-yl)-N-(3-morpholinopropyl)nicotinamide]: the EC50 in assay [1] is 933 nM. Moreover, the “PHD Inhibition (pIC50)” value in assay [2] came out at 7.18.

Regarding `N#Cc1ccc(-c2cnn(-c3ccc(C(=O)NC4CCN(C5CC5)CC4)cn3)c2O)cc1` [Example 93, 6-(4-(4-cyanophenyl)-5-hydroxy-1H-pyrazol-1-yl)-N-(1-cyclopropylpiperidin-4-yl)nicotinamide], the EC50 in assay [1] is 871 nM. Besides, the “PHD Inhibition (pIC50)” value in assay [2] was 7.08.

Regarding `Cc1cc(C#N)ccc1-c1cnn(-c2ccc(C(=O)NCC3CCN(C)CC3)cn2)c1O` [Example 94, 6-(4-(4-cyano-2-methylphenyl)-5-hydroxy-1H-pyrazol-1-yl)-N-((1-methylpiperidin-4-yl)methyl)nicotinamide], the EC50 in assay [1] was 93.3 nM. The “PHD Inhibition (pIC50)” value in assay [2] is 7.9.

(Values after patent publication US10407409B2, “6-(5-hydroxy-1H-pyrazol-1-yl)nicotinamide inhibitors of PHD” (Takeda Pharmaceutical Company Limited, priority 2013, dated 2019).)
